Assay results taken from PMC9961069 (Metabolites, 2023).

What was measured:
purified human DHFR = target: T1, purified human DHFR (Homo sapiens, UniProt P00374); test: DHFR enzymatic inhibition assay (NADPH absorbance at 340 nm); format: biochemical; conditions: 200 nM DHFR, 137.5 μM DHF, 125 μM NADPH; n = 2; read-out: IC50
T1 construct: made in house; host or cells: E. coli BL21 (DE3) T1R pRARE2, pNIC-Bsa4 plasmid
T1 sequence (P00374 1-187): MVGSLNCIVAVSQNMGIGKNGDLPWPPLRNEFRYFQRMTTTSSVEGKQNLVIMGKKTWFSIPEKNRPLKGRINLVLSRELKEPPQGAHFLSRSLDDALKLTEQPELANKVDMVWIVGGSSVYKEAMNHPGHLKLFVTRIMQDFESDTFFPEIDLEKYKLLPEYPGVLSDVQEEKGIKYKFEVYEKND
Method: Working stocks of each inhibitor were created so that the final concentration of DMSO in each reaction was 2% in a final reaction volume of 100 μL. […] Reactions were prepared on ice in 384-well plates. […] Consumption of NADPH by measuring absorbance at 340 nm was used to monitor the progress of the reaction. Readings were taken every 5 min for 1 h at 37 °C using a Synergy MX microplate reader (BioTek).
Percent inhibition relative to the no-inhibitor control was determined using Equation (1). (1) % Inhibition=A340Inhibitor−A340DMSO Control/A340No DHFR−A340DMSO Control×100
Percent inhibition data were then fit to the four-parameter logistic model (Equation (2)) in GraphPad Prism 9.4.1 to determine half-maximal inhibitory concentrations (IC50):(2) y=Bottom+Top−Bottom/1+IC50/x^Hill slope where y represents the percent inhibition, x represents the concentration of inhibitor (μM), the bottom and top represent the bottom and top plateaus, and the Hill slope represents the slope factor. Each experiment contained duplicates of each sample, and each experiment was performed 2 times (n = 2). An ordinary one-way ANOVA was used to test for statistical significance between treatments.

MCF-7 cells = test: Resazurin viability assay with or without folinic acid, MCF-7; format: cell-based, Human; conditions: 72 h; for Relative Viability (%) – Inhibitor + FA Treatment: MCF-7, 10 μM + 300 μg/mL folinic acid; for Relative Viability (%) – Inhibitor Alone: MCF-7, 10 μM, relative to DMSO; for Rescue of viability impairment by folinic acid: MCF-7, 10 μM ± 300 μg/mL FA
Method: (§1) The incorporation and metabolism of resazurin to resorufin was used to monitor cell viability. MDA-MB-468, MCF7, and MDA-MB-231 cells were grown in 96-well plates with a total of 5000 cells per well in a total volume of 180 μL for 24 h, as described above. After 24 h of growth, cells were treated with increasing concentrations of compounds (0.0457–100 μM) for 72 h. A vehicle control was also performed. […] The volume of treatment added to each well was 20 μL. For folinic acid rescue experiments, 5000 cells were treated with 10 μM compound with or without 300 μg/mL folinic acid (Supelco). After 72 h of treatment, resazurin was added to a final concentration of 44 μM, and cells were incubated for an additional 4 h at 37 °C. The fluorescence of resorufin was monitored on a Synergy MX microplate reader (BioTek) using an excitation wavelength of 540 nm and an emission wavelength of 600 nm. Percent viability relative to the DMSO control was determined. Each treatment was performed in triplicate, and each individual experiment was repeated three times (n = 3).

MDA-MB-468 cells = test: Resazurin viability assay with or without folinic acid, MDA-MB-468; format: cell-based, Human; conditions: 72 h; for Relative Viability (%) – Inhibitor + FA Treatment: MDA-MB-468, 10 μM + 300 μg/mL folinic acid; for Relative Viability (%) – Inhibitor Alone: MDA-MB-468, 10 μM, relative to DMSO
Method: as §1

MDA-MB-231 cells [1] = test: Resazurin viability assay with or without folinic acid, MDA-MB-231; format: cell-based, Human; conditions: 72 h; for Relative Viability (%) – Inhibitor + FA Treatment: MDA-MB-231, 10 μM + 300 μg/mL folinic acid; for Relative Viability (%) – Inhibitor Alone: MDA-MB-231, 10 μM, relative to DMSO
Method: as §1

[2] = test system: T2, DHFR in MDA-MB-468 lysates; test: Lysate cellular thermal shift assay (CETSA) for DHFR; format: binding, Human; conditions: 10 μM, MDA-MB-468 lysate, 45 °C for 3 min, DMSO at 37 °C = 100%
T2 construct: reactions containing 55 μg MDA-MB-468 lysate; endogenous in cells; host or cells: MDA-MB-468
Method: Trypsinized MDA-MB-468 cells were harvested by centrifugation at 200× g for 5 min and washed with PBS supplemented with EDTA-free PIC (Roche) and flash frozen for storage at −80 °C. Cells were lysed by resuspension in 60 μL PBS/PIC per 1 × 10^6 cells. Cells were lysed by three freeze-thaw cycles, where cells were frozen in an ethanol/dry ice bath for 3 min, immediately followed by incubation in a 37 °C water bath for 3 min. The insoluble fraction was removed by centrifugation at 20,000× g for 20 min at 4 °C. The supernatant containing the soluble lysate was removed and saved for subsequent steps.
After incubation, each reaction was transferred to a 1.5 mL tube and centrifuged at 20,000× g for 20 min at 4 °C to remove the insoluble proteins. After centrifugation, 18 μL of supernatant was carefully removed from each reaction, without disturbing any pelleted aggregates, and added to 4.5 μL of 5× SDS-PAGE loading buffer. 11 μL of each reaction was loaded onto a gel in duplicate, and proteins were detected by Western blot (as described below). Resulting band densities were fit to the Boltzmann equation to determine the melting temperature (Tm):(3) y=Bottom+Top−Bottom/1+e^Tm−x/Slope
To rescue the thermal degradation of DHFR by inhibitors, samples containing 10 μM inhibitor, 55 μg lysate, and 1% DMSO in a total volume of 28 μL in DHFR buffer were prepared in PCR tubes and incubated at room temperature for 20 min. Two DMSO-only controls were also prepared. Reactions containing inhibitors were then incubated at 45 °C for 3 min. One DMSO-only control was also heated at 45 °C for 3 min, and the other control was heated at 37 °C for 3 min. The soluble protein fraction was separated from the insoluble proteins by centrifugation, and proteins were separated by SDS-PAGE, as described above, and analyzed via Western blot, as described below. Each experiment was repeated 3 times.
Proteins were electrophoretically separated on a 10% gel, and proteins were transferred to a methanol-activated PVDF membrane using the Trans-Blot Turbo transfer system (Bio-Rad) for 7 min at 1.3 A and 25 V in Trans-Blot Turbo transfer buffer (Bio-Rad). Membranes were blocked with 5% skim milk w/v in TBS-T (20 mM Tris, 150 mM NaCl, 0.05% Tween-20) for 1 h at room temperature. […] The horseradish peroxidase (HRP)-linked anti-mouse IgG secondary antibody (NA931, Cytiva; 1:3000) was added for 1 h at room temperature in 5% skim milk w/v in TBS-T. Signal was detected by adding Immobilon Forte Western HRP Substrate (Millipore), and chemiluminescence was captured on a Sapphire Biomolecular Imager (Azure Biosystems). Band densities were determined using ImageJ (Fiji). The band intensity of DHFR was normalized to the thermostable loading control SOD1 [22].

[3] = test system: STAT3 transcriptional activity in U3A STAT3 luciferase reporter cell line; test: STAT3 luciferase reporter assay; format: cell-based; conditions: 0.02–20 μM, OSM 10 ng/mL
Method: The STAT3-dependent luciferase reporter assay was performed as previously reported. One day prior to the assay, the U3A STAT3 luciferase reporter cell line was seeded in a 96-well plate at 8000 cells per well. Cells were then incubated with compounds at the indicated concentration, and each well was treated with either media control or stimulated with 10 ng/mL oncostatin M (OSM) and incubated for six hours at 37 °C. Luciferase activity was quantified using the Bright-Glo Luciferase Assay system (Promega) and a Luminoskan Ascent Luminometer (Labsystems). Collected luminescence readings were normalized to DMSO-treated controls. Stimulation with (+OSM) gave luminescence values around 2.5 times that of the unstimulated control (−OSM). Quadruplicates were averaged and plotted with error bars representing standard deviation. Each condition was performed in quadruplicate on two separate occasions (n = 2) with representative data shown. Statistical significance was determined using Ordinary one-way ANOVA with a Dunnett multiple comparison test.

MDA-MB-231 cells [4] = test: LC/MS-based metabolite profiling; format: cell-based, Human; conditions: 24 h
Method: For characterization by mass spectrometry, MDA-MB-231 cells were seeded at a density of 3 × 10^5 cells per well in 6-well plates. […] DMSO only and DMSO + folinic acid controls were also performed. Per condition, biological quadruplicates of approximately one million cells were harvested, washed briefly with 1 mL of 0.9% NaCl (prepared in LC/MS-grade water Fisher Scientific W6500), and extracted in 500 μL prechilled extraction buffer (80% LC/MS-grade methanol, 20% 125 mM ammonium acetate, 12.5 mM sodium ascorbate prepared in LC/MS-grade water and supplemented with aminopterin (catalog no.: 16.330; Schircks Laboratories) and isotopically labeled internal standards (17 amino acids and reduced glutathione [Cambridge Isotope Laboratories; MSK- A2-1.2 and CNLM-6245-10])) using a cell scraper. After centrifugation for 10 min, 4 °C, at maximum speed on a benchtop centrifuge (Eppendorf), the cleared supernatant was transferred to a new tube and dried using a nitrogen dryer (Reacti-Vap™ Evaporator, Thermo Fisher Scientific, TS-18826) while on ice. Once the drying process was completed, samples were reconstituted in 50 µL QReSS water (Cambridge Isotope Laboratories, MSK-QRESS-KIT) by brief sonication in a 4 °C water bath. Extracted metabolites were spun for 3 min, 4 °C, at maximum speed on a bench-top centrifuge, and cleared supernatant was transferred to LC/MS microvials (National Scientific, C5000-45B). Three microliters of each sample were pooled and serially diluted 3- and 10-fold to be used as quality controls throughout the run of each batch. Unlabeled QReSS metabolites (Cambridge Isotope Laboratories, MSK-QReSS-US-KIT) and unlabeled amino acid mix standard (Cambridge Isotope Laboratories, MSK-A2-US-1.2) were also included in the run to ensure high-quality metabolomics results.
One microliter (equivalent to 2 × 10^4 cells) of the reconstituted sample was injected into a ZIC-pHILIC 150 × 2.1 mm (5 µm particle size) column (EMD Millipore) operated on a Vanquish™ Flex UHPLC Systems (Thermo Fisher Scientific, San Jose, CA, USA). Chromatographic separation was achieved using the following conditions: buffer A was acetonitrile; buffer B was 20 mM ammonium carbonate, 0.1% ammonium hydroxide. Gradient conditions were: linear gradient from 20% to 80% B; 20–20.5 min: from 80% to 20% B; 20.5–28 min: hold at 20% B. The column oven and autosampler tray were held at 25 °C and 4 °C, respectively.
Mass spectrometry data acquisition was performed using a QExactive benchtop orbitrap mass spectrometer equipped with an Ion Max source and a HESI II probe (Thermo Fisher Scientific, San Jose, CA, USA) and was performed in positive and negative ionization mode in a range of m/z = 70–1000, with the resolution set at 70,000, the AGC target at 1 × 10^6, and the maximum injection time (Max IT) at 20 msec. For nucleotide tSIM scans, the resolution was set at 70,000, the AGC target was 1 × 10^5, and the max IT was 100 msec.
Manual curation and integration of chromatographic peaks were performed with TraceFinder 4.1 (Thermo Fisher Scientific, Waltham, MA, USA) using a 5 ppm mass tolerance and referencing an in-house library of chemical standards. Data from TraceFinder were further consolidated and normalized with an in-house R script: (https://github.com/FrozenGas/KanarekLabTraceFinderRScripts/blob/main/MS_data_script_v2.4_20221018.R (accessed on 22 November 2022)). Briefly, this script performs normalization and quality control steps: (1) extracts and combines the peak areas from TraceFinder output .csvs; (2) calculates and normalizes to an averaged factor from all mean-centered chromatographic peak areas of isotopically labeled amino acids internal standards within each sample; (3) filters out low-quality metabolites based on user inputted cut-offs calculated from pool reinjections and pool dilutions; (4) calculates and normalizes for biological material amounts based on the total integrated peak area values of high-confidence metabolites. […]

| IC50 (purified human DHFR) | SMILES | Relative Viability (%) – Inhibitor + FA Treatment (MCF-7 cells) | Relative Viability (%) – Inhibitor Alone (MCF-7 cells) | Relative Viability (%) – Inhibitor + FA Treatment (MDA-MB-468 cells) | Relative Viability (%) – Inhibitor Alone (MDA-MB-468 cells) | Relative Viability (%) – Inhibitor + FA Treatment (MDA-MB-231 cells [1]) | Relative Viability (%) – Inhibitor Alone (MDA-MB-231 cells [1]) | Normalized Band Density (%) of soluble DHFR [2] | Rescue of viability impairment by folinic acid (MCF-7 cells) | Inhibition of STAT3-dependent luciferase activity [3] | Orotate levels with FA supplementation (MDA-MB-231 cells [4]; 10 μM + 300 μg/mL FA) | AICAR levels (MDA-MB-231 cells [4]; 10 μM, inhibitor alone) | Orotate levels (MDA-MB-231 cells [4]; 10 μM, inhibitor alone) | UDP level (MDA-MB-231 cells [4]; 10 μM, inhibitor alone versus DMSO) | Normalized Band Density (%) of soluble DHFR ([2]; listed as Methotrexate) | Rescue of viability impairment by folinic acid (MDA-MB-468 cells; MDA-MB-468, 10 μM ± 300 μg/mL FA) | Rescue of viability impairment by folinic acid (MDA-MB-231 cells [1]; MDA-MB-231, 10 μM ± 300 μg/mL FA) |
| --- | --- | --- | --- | --- | --- | --- | --- | --- | --- | --- | --- | --- | --- | --- | --- | --- | --- |
| 8.6 ± 2.7 µM | CCc1nc(N)nc(N)c1-c1ccc(Cl)c(Cl)c1 [compound 3062, etoprine] | 100.10 ± 8.2% | 65.16 ± 9.0% | 81.08 ± 13.2% | 65.38 ± 1.3% | 65.52 ± 15.0% | 52.76 ± 12.1% | 83.56 ± 52.1% |  |  |  |  |  |  |  |  |  |
|  | CC1(C)N=C(N)N=C(N)N1c1ccc(Cl)c(Cl)c1 [compound 3077] |  |  |  |  |  |  |  | small yet statistically significant rescue |  |  |  |  |  |  |  |  |
|  | CN(Cc1cnc2nc(N)nc(N)c2n1)c1ccc(C(=O)N[C@@H](CCC(=O)O)C(=O)O)cc1 [MTX, methotrexate] |  |  |  |  |  |  | greater than 100% |  | potent inhibition of luciferase activity | returned orotate to vehicle control levels | failed to increase AICAR levels in a statistically significant manner | decreased or statistically insignificant changes in orotate levels | not upon treatment with MTX and 127159 alone | 123.37 ± 73.5% |  |  |
|  | CCS(=O)(=O)O.CN(C)C(=O)c1cccc(COc2ccc(N3C(N)=NC(N)=NC3(C)C)cc2Cl)c1 [compound 139105, triazinate] | 82.83 ± 9.7% | 66.53 ± 8.1% | 81.38 ± 16.9% | 57.09 ± 8.0% | 65.85 ± 13.7% | 46.35 ± 9.0% | 86.05 ± 21.9% | not rescued |  |  |  |  |  |  | statistically significant rescue | not rescued |
